From publication PMC9508125, “The evolutionary advantage of an aromatic clamp in plant family 3 glycoside exo-hydrolases” (Nature Communications, 2022)
Substitutions are numbered along the chain they refer to.

Columns and labels:
Format in all cases: biochemical
WT HvExoI = WT HvExoI (Hordeum vulgare, UniProt Q9XEI3); assay: Steady-state apparent kinetic constants with substrates; conditions: substance is the substrate
Description: Dependency of activities of WT and mutant HvExoI on pH (McIlvaine buffers in the pH range of 3.5–8.5 at 30 °C) and temperature (100 mM sodium acetate buffer, pH 5.25, temperature range 0–80 °C, 15 min incubations) were determined using 0.2% (w/v) 4NP-Glc[21],[59]. Relative rates of hydrolysis of β-linked poly-, oligosaccharides, and aryl-glucosides were determined using near-homogenous HvExoI at 50 pmoles. […] Kinetic parameters were calculated from the analyses of Michaelis-Menten plots with Grafit 7.0.3[62] and processed by a proportional weighted fit, using nonlinear regression. The relative rates of hydrolysis, kinetic, and inhibition data were rounded to one or two decimal points (Supplementary Tables 2–4).

HvExoI W434A mutant = target: T1, HvExoI W434A mutant (Hordeum vulgare, UniProt Q9XEI3, W459A); assay: Relative rates of hydrolysis of poly-, oligosaccharides and aryl-glycosides; conditions: substance is the substrate, nd = activity not detected
T1 sequence (Q9XEI3 26-630 W459A): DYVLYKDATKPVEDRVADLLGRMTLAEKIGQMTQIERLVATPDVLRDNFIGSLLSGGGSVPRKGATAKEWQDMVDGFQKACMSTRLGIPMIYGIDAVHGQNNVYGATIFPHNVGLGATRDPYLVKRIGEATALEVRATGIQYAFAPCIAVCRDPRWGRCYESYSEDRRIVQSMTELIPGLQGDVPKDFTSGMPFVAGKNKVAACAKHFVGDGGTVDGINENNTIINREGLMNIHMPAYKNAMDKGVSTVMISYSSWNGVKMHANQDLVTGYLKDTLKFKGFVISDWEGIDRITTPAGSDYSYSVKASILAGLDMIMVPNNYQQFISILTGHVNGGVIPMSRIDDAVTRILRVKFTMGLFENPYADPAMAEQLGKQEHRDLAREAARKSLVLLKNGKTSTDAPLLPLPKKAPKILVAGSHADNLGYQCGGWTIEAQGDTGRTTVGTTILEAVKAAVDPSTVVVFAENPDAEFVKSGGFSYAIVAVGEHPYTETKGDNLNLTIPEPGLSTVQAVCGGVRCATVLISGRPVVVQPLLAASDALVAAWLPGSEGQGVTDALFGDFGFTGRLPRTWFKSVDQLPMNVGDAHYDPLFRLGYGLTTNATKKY
Method in brief: (§1)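 50 pmoles near-homogeneous enzyme for relative rates on β-linked substrates; Km/kcat-type constants by nonlinear Michaelis-Menten fit, proportional weighting. 4NP-Glc 0.2% (w/v) for pH (McIlvaine 3.5–8.5, 30 °C) and temperature (NaOAc pH 5.25, 0–80 °C, 15 min) scans.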

HvExoI W434F mutant = target: T2, HvExoI W434F mutant (Hordeum vulgare, UniProt Q9XEI3, W459F); assay: as above; conditions: substance is the substrate, nd = activity not detected
T2 sequence (Q9XEI3 26-630 W459F): T1 sequence (Q9XEI3 26-630 W459A) with A434F
Method in brief: as §1

[1] = target: T3, HvExoI W286F/W434A mutant (Hordeum vulgare, UniProt Q9XEI3, W311F/W459A); assay: as above; conditions: substance is the substrate, nd = activity not detected
T3 sequence (Q9XEI3 26-630 W311F/W459A): T1 sequence (Q9XEI3 26-630 W459A) with W286F
Method in brief: as §1

HvExoI W434Y mutant = target: T4, HvExoI W434Y mutant (Hordeum vulgare, UniProt Q9XEI3, W459Y); assay: as above; conditions: substance is the substrate, nd = activity not detected
T4 sequence (Q9XEI3 26-630 W459Y): T1 sequence (Q9XEI3 26-630 W459A) with A434Y
Method in brief: as §1

WT HvExoI, sequence (Q9XEI3 entry or part of it): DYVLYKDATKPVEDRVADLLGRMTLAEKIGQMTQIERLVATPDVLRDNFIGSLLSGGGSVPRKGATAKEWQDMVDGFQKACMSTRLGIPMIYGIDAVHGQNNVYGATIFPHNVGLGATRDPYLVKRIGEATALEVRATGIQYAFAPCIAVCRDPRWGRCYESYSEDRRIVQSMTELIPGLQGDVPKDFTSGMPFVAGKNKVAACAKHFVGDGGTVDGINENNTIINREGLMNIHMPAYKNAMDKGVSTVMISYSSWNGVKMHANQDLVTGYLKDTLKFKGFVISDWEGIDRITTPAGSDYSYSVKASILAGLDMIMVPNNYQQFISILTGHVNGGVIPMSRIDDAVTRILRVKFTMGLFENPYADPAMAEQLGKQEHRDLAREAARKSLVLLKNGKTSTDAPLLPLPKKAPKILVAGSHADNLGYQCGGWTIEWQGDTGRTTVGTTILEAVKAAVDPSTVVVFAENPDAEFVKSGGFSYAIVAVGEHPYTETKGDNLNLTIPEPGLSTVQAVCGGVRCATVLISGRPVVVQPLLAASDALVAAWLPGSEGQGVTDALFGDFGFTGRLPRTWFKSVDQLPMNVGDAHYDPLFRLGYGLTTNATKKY

Compound	Km (WT HvExoI) [µM]	kcat (WT HvExoI) [s⁻¹]	Activity (relative rate of hydrolysis) (HvExoI W434A mutant)	Activity (relative rate of hydrolysis) (HvExoI W434F mutant) [μmole/min per mg protein]	Activity (relative rate of hydrolysis) [1] [μmole/min per mg protein]	Activity (relative rate of hydrolysis) (HvExoI W434Y mutant) [μmole/min per mg protein]
laminarin	200 ± 20	42.1 ± 7.6	no activity	7.8 ± 0.4	0.1 ± 0.003	0.7 ± 0.03
OC[C@H]1O[C@@H](O[C@@H]2[C@@H](O)[C@H](O[C@H]3[C@H](O)[C@@H](CO)OC(O)[C@@H]3O)O[C@H](CO)[C@H]2O)[C@H](O)[C@@H](O)[C@@H]1O (stereo partly shown) [Laminaritriose]			0.9 ± 0.1 μmole/min per mg protein	18.4 ± 1.4	0.1 ± 0.002	1.4 ± 0.2
OC[C@H]1O[C@@H](O[C@H]2[C@H](O)[C@@H](CO)OC(O)[C@@H]2O)[C@H](O)[C@@H](O)[C@@H]1O (stereo partly shown) [Laminaribiose]	1300 ± 120	54.2 ± 6.9	0.5 ± 0.03 μmole/min per mg protein	14.9 ± 1.7	0.1 ± 0.001	1.1 ± 0.1
